From publication PMC12663243 (Scientific Reports, 2025)
pEC50: −log10 of the molar value. Counter-ions that a name gives are not always drawn. Positions of bridges follow the written chain, without caps; N, C: chain ends. Non-standard residues stand in square brackets, D forms with d. Residues, ends and D or L forms follow the SMILES beside them. Hyp = O=C(O)[C@@H]1C[C@@H](O)CN1

Experiments:
human SSTR4 [1] = biological target: T1, human SSTR4 (Homo sapiens, UniProt P31391); format: cell-based
human SSTR1 = human SSTR1 (Homo sapiens, UniProt P30872); format: cell-based
SSTR4 = settings: binding assays ref 48; cited from earlier work
human SSTR4 [2] = biological target: T1, human SSTR4; assay: cell-based
C57Bl/6j mice = settings: mouse, in vivo, ip, 5 mg/kg

T1 sequence (P31391 whole entry): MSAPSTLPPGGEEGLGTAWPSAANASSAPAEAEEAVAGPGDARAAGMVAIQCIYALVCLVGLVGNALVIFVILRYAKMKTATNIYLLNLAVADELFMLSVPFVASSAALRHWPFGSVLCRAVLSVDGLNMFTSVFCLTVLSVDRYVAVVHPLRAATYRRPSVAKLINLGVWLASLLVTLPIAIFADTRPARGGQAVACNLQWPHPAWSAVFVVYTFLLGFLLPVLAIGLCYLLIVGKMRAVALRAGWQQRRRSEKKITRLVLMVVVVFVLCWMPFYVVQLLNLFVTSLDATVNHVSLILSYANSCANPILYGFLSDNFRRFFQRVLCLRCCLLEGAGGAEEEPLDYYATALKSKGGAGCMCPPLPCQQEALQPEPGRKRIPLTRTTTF
human SSTR1, sequence (P30872 whole entry): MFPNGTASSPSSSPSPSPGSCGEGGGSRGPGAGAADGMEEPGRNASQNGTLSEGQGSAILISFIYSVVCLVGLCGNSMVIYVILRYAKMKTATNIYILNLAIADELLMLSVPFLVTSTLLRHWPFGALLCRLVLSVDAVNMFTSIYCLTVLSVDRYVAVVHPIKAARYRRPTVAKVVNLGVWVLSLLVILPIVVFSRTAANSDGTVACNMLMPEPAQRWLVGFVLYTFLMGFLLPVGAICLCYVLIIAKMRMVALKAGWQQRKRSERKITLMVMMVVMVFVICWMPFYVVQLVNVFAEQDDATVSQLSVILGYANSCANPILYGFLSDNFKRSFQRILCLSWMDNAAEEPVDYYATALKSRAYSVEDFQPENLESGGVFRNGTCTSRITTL

CC(C)C[C@H](NC(=O)[C@@H]1C[C@@H](O)CN1C(=O)[C@@H]1CSSC[C@H](NC(=O)[C@@H](NC(=O)[C@@H]2CCCN2)C(C)C)C(=O)N[C@H](Cc2c[nH]c3ccccc23)C(=O)N[C@@H](CCCCN)C(=O)N[C@@H](Cc2ccccc2)C(=O)N[C@@H](C)C(=O)N1)C(=O)O [Fj1A4] (H-PVC[dW]KFAC[Hyp]L-OH; disulfide 3-8; N-terminus assumed)
increase in potency at SSTR4 (human SSTR4 [1]): 6.2 fold

CC(C)C[C@H](NC(=O)[C@@H]1C[C@@H](O)CN1C(=O)[C@@H]1CSSC[C@H](NC(=O)[C@@H](NC(=O)[C@@H]2CCCN2)C(C)C)C(=O)N[C@H](Cc2c[nH]c3ccccc23)C(=O)N[C@@H](CCCCN)C(=O)N[C@@H](Cc2ccccc2)C(=O)N[C@@H]([C@@H](C)O)C(=O)N1)C(=O)O [Fj1A16] (H-PVC[dW]KFTC[Hyp]L-OH; disulfide 3-8; N-terminus assumed)
effect on SSTR1 potency (human SSTR1): slight increase in SSTR1 activity | effect on SSTR4 potency (human SSTR4 [1]): retained the SSTR4 potency of Fj1

CC(C)[C@H](NC(=O)[C@@H]1CCCN1)C(=O)N[C@H]1CSSC[C@@H](C(=O)N[C@@H](Cc2c[nH]c3ccccc23)C(=O)O)NC(=O)[C@H](CC(N)=O)NC(=O)[C@H](Cc2ccccc2)NC(=O)[C@H](CCCCN)NC(=O)[C@@H](Cc2c[nH]c3ccccc23)NC1=O [Fj1A20] (H-PVC[dW]KFNCW-OH; disulfide 3-8; N-terminus assumed)
effect on SSTR4 potency (human SSTR4 [1]): slight decrease in SSTR4 potency

CC(C)[C@H](NC(=O)[C@@H]1CCCN1)C(=O)N[C@H]1CSSC[C@@H](C(=O)N[C@@H](Cc2c[nH]c3ccccc23)C(=O)O)NC(=O)[C@H]([C@@H](C)O)NC(=O)[C@H](Cc2ccccc2)NC(=O)[C@H](CCCCN)NC(=O)[C@@H](Cc2c[nH]c3ccccc23)NC1=O [Fj1A19] (H-PVC[dW]KFTCW-OH; disulfide 3-8; N-terminus assumed)
effect on SSTR4 potency (human SSTR4 [1]): slight decrease in SSTR4 potency

CC(C)C[C@H](NC(=O)[C@@H]1C[C@@H](O)CN1C(=O)[C@@H]1CSSC[C@H](N)C(=O)N[C@H](Cc2c[nH]c3ccccc23)C(=O)N[C@@H](CCCCN)C(=O)N[C@@H](Cc2ccccc2)C(=O)NCC(=O)N1)C(=O)O [Fj1A10] (H-C[dW]KFGC[Hyp]L-OH; disulfide 1-6; N-terminus assumed)
decrease in potency at SSTR4 (human SSTR4 [1]): 13 fold

CC(C)C[C@H](NC(=O)[C@@H]1C[C@@H](O)CN1C(=O)[C@@H]1CSSC[C@H](NC(=O)[C@@H](NC(=O)[C@@H]2CCCN2)C(C)C)C(=O)N[C@H](Cc2c[nH]c3ccccc23)C(=O)N[C@@H](CCCCN)C(=O)N[C@H](Cc2ccccc2)C(=O)NCC(=O)N1)C(=O)O [Fj1A8] (H-PVC[dW]K[dF]GC[Hyp]L-OH; disulfide 3-8; N-terminus assumed)
decrease in potency at SSTR4 (human SSTR4 [1]): 42 fold

CC(C)C[C@H](NC(=O)[C@@H]1CCCN1C(=O)[C@@H]1CSSC[C@H](NC(=O)[C@@H](NC(=O)[C@@H]2CCCN2)C(C)C)C(=O)N[C@H](Cc2c[nH]c3ccccc23)C(=O)N[C@@H](CCCCN)C(=O)N[C@@H](Cc2ccccc2)C(=O)NCC(=O)N1)C(=O)O [Fj1A7] (H-PVC[dW]KFGCPL-OH; disulfide 3-8; N-terminus assumed)
effect on SSTR1 potency (human SSTR1): increase in SSTR1 potency | effect on SSTR4 potency (human SSTR4 [1]): virtually no effect

CC(C)C[C@H](NC(=O)[C@@H]1C[C@@H](O)CN1C(=O)[C@@H]1CSSC[C@H](NC(=O)[C@H](Cc2ccccc2)NC(=O)[C@@H](N)CC(C)C)C(=O)N[C@H](Cc2c[nH]c3ccccc23)C(=O)N[C@@H](CCCCN)C(=O)N[C@@H](Cc2ccccc2)C(=O)NCC(=O)N1)C(=O)O [Fj1A13] (H-LFC[dW]KFGC[Hyp]L-OH; disulfide 3-8; N-terminus assumed)
increase in potency at SSTR4 (human SSTR4 [1]): 11 fold

CC(C)[C@H](NC(=O)[C@@H]1CCCN1)C(=O)N[C@H]1CSSC[C@@H](C(=O)N[C@@H](Cc2c[nH]c3ccccc23)C(=O)O)NC(=O)CNC(=O)[C@H](Cc2ccccc2)NC(=O)[C@H](CCCCN)NC(=O)[C@@H](Cc2c[nH]c3ccccc23)NC1=O [Fj1A14] (H-PVC[dW]KFGCW-OH; disulfide 3-8; N-terminus assumed)
increase in potency at SSTR4 (human SSTR4 [1]): 85 fold

CC(C)C[C@H](NC(=O)[C@@H]1C[C@@H](O)CN1C(=O)[C@@H]1CSSC[C@H](NC(=O)[C@@H](NC(=O)[C@@H]2CCCN2)C(C)C)C(=O)N[C@H](Cc2c[nH]c3ccccc23)C(=O)N[C@@H](CCCCN)C(=O)N[C@@H](Cc2ccccc2)C(=O)N[C@@H](CC(N)=O)C(=O)N1)C(=O)O [Fj1A17] (H-PVC[dW]KFNC[Hyp]L-OH; disulfide 3-8; N-terminus assumed)
increase in potency at SSTR4 (human SSTR4 [1]): 6.8 fold

Cc1ccc(S(=O)(=O)N[C@@H](CCN)C(=O)N[C@@H](Cc2ccccc2)C(N)=O)c2ccccc12 [J-2156]
selectivity for SSTR4 over SSTR1 (SSTR4): approximately 360 fold | selectivity for SSTR4 over SSTR5 (SSTR4): ~390 fold

NCCCC[C@@H]1NC(=O)[C@@H](Cc2c[nH]c3ccccc23)NC(=O)[C@@H](N)CSSC[C@@H](C(=O)O)NC(=O)CNC(=O)[C@H](Cc2ccccc2)NC1=O [Fj1A9, Cys3-D-Trp4-Lys5-Phe6-Gly7-Cys8] (H-C[dW]KFGC-OH; disulfide 1-6; N-terminus assumed)
decrease in potency at SSTR4 (human SSTR4 [1]): 47 fold

CC(C)[C@H](NC(=O)[C@@H]1CCCN1)C(=O)N[C@H]1CSSC[C@@H](C(=O)O)NC(=O)CNC(=O)[C@H](Cc2ccccc2)NC(=O)[C@H](CCCCN)NC(=O)[C@@H](Cc2c[nH]c3ccccc23)NC1=O [Fj1A11] (H-PVC[dW]KFGC-OH; disulfide 3-8; N-terminus assumed)
effect on SSTR4 potency (human SSTR4 [1]): virtually equipotent

CC(C)C[C@H](NC(=O)[C@@H]1C[C@@H](O)CN1C(=O)[C@@H]1CSSC[C@H](NC(=O)[C@@H](NC(=O)[C@@H]2CCCN2)C(C)C)C(=O)N[C@@H](C)C(=O)N[C@@H](CCCCN)C(=O)N[C@@H](Cc2ccccc2)C(=O)NCC(=O)N1)C(=O)O [Fj1A1] (H-PVCAKFGC[Hyp]L-OH; disulfide 3-8; N-terminus assumed)
decrease in potency at SSTR4 (human SSTR4 [1]): 5000 fold

CC(C)[C@H](NC(=O)[C@@H]1CSSC[C@H](NC(=O)[C@H](CC(N)=O)NC(=O)[C@@H](N)Cc2ccc(O)cc2)C(=O)N[C@@H](Cc2c[nH]cn2)C(=O)N[C@H](Cc2c[nH]c3ccccc23)C(=O)N[C@@H](CCCCN)C(=O)N[C@@H]([C@@H](C)O)C(=O)N1)C(=O)O [Fj2] (H-YNCH[dW]KTCV-OH; disulfide 3-8; N-terminus assumed)
pEC50 (human SSTR4 [2]): 5.70

CN1CC[C@]23c4c5ccc(O)c4O[C@H]2[C@@H](O)C=C[C@H]3[C@H]1C5 [morphine, morphine sulfate]
duration of action (C57Bl/6j mice): shorter | peak efficacy (C57Bl/6j mice): higher peak efficacy than Fj1

CC(C)C[C@H](NC(=O)[C@@H]1C[C@@H](O)CN1C(=O)[C@@H]1CSSC[C@H](NC(=O)[C@@H](NC(=O)[C@@H]2CCCN2)C(C)C)C(=O)N[C@H](Cc2c[nH]c3ccccc23)C(=O)N[C@@H](CCCCN)C(=O)N[C@@H](Cc2ccccc2)C(=O)N[C@@H](CO)C(=O)N1)C(=O)O [Fj1A15] (H-PVC[dW]KFSC[Hyp]L-OH; disulfide 3-8; N-terminus assumed)
increase in potency at SSTR4 (human SSTR4 [1]): 14 fold

CC(C)[C@H](NC(=O)[C@@H]1CCCN1)C(=O)N[C@H]1CSSC[C@@H](C(=O)N[C@@H](Cc2c[nH]c3ccccc23)C(=O)O)NC(=O)[C@H](CO)NC(=O)[C@H](Cc2ccccc2)NC(=O)[C@H](CCCCN)NC(=O)[C@@H](Cc2c[nH]c3ccccc23)NC1=O [Fj1A18] (H-PVC[dW]KFSCW-OH; disulfide 3-8; N-terminus assumed)
effect on SSTR4 potency (human SSTR4 [1]): well tolerated

CC(C)C[C@H](NC(=O)[C@@H]1C[C@@H](O)CN1C(=O)[C@@H]1CSSC[C@H](NC(=O)[C@@H](NC(=O)[C@@H]2CCCN2)C(C)C)C(=O)N[C@H](Cc2c[nH]c3ccccc23)C(=O)N[C@@H](CCCCN)C(=O)N[C@@H](C)C(=O)NCC(=O)N1)C(=O)O [Fj1A3] (H-PVC[dW]KAGC[Hyp]L-OH; disulfide 3-8; N-terminus assumed)
decrease in potency at SSTR4 (human SSTR4 [1]): 630 fold
